Measurements: PubChem BioAssay AID2305 (GlaxoSmithKline (GSK), 2010)

Tested on: P. falciparum 3D7 growth, pLDH absorbance
Test: blood-stage malaria parasite growth potency – strain 3D7, dose response (AID 2305)

| SMILES | IC50 [µM] |
| --- | --- |
| COc1cccc(CCc2ccc(O)c3c2C[C@H]2C[C@H]4[C@H](N(C)C)C(=O)C(C(N)=O)=C(O)[C@@]4(O)C(=O)C2=C3O)c1 | 0.85 |
| CN(C)CCCN1CCN(C(=O)c2cc3cc(-c4ccccc4)ccc3n2S(=O)(=O)c2ccccc2)CC1 | 0.12 |
| Cc1cc(NCCc2ccccc2)nc(/N=C(\N)Nc2ccc(Cl)cc2)n1 | 0.23 |
| Nc1c2ccccc2nc2cc(Cl)ccc12 | 0.71 |
| CCCCCCCN1CC[C@H](NC(=O)Nc2ccnc3ccc(OC)cc23)[C@H](CO)C1 | 0.18 |
| COc1cc2c(cc1OC)C(C(=O)Nc1cc(OC)c(OC)c(OC)c1)C(c1ccc(SC)cc1)N(C)C2=O (stereo not given) | 0.99 |
| CCc1c(C(=O)NC2CCC(N3CCC(c4ccccc4OC)CC3)CC2)[nH]c2ccc(OC)cc12 (stereo not given) | 1.11 |
| COc1ccc2ncc(F)c(CCN3[C@@H]4CC[C@H]3CC(NCc3ccc5c(c3)OCCO5)C4)c2n1 (stereo not given in full) | 0.23 |
| Cc1ccccc1CN1CCCN(Cc2ccc(C(=O)Nc3ccc(C(C)(C)C)cc3)cc2)CC1 | 0.86 |
| Cc1cc(N[C@@H](C)C(=O)Nc2ccccc2)nc(NCCc2ccc(F)cc2)n1 | 1.11 |
| Cc1occc1C(=O)Nc1nc(-c2ccccn2)nc2ccsc12 | 0.9 |
| CN(C)c1ccc(N2C(N)=NC(N)=NC23CCCC3)cc1 | 0.93 |
| CC(C)NCc1cccc(-c2cccc(NC(=O)c3cccc(Cl)c3)c2)c1 | 0.59 |
| CCCCCCCCNCCCSCCCNCCCCCCCC | 1.23 |
| COc1ccc2nccc(NN=Cc3cccc(Cl)c3)c2c1 | 0.19 |
| C/C=C/COc1ccc(-c2c(C)[nH]c(C)c(Cl)c2=O)cc1 | 0.2 |
| CC(C)(C)c1ccc2nc(-c3ccc(/C=C/C(=O)NC4CCN(Cc5ccccc5)CC4)cc3)[nH]c2c1 | 0.59 |
| CC(CN1CCN(C)CC1)C(=O)Nc1cccc(-c2cccc(-c3nc4ccccc4[nH]3)c2)c1 (stereo not given) | 1.01 |
| c1ccc(CCNCc2ccc(-c3ccc(CNCc4ccc5c(c4)OCO5)cc3)nc2)cc1 | 1.25 |
| Cc1ccc(O)cc1Nc1ccnc2cc(-c3ccncc3)ccc12 | 0.72 |
| Cc1[nH]c(C)c(-c2ccc(Oc3cccc(Cl)c3)cc2)c(=O)c1Cl | 0.02 |
| COc1ccc(S(=O)(=O)N(CCCN2CCN(C)CC2)Cc2csc(-c3ccc(CNCc4ccccc4)cc3)n2)cc1 | 0.95 |
| CC[C@H](C)CNC(=O)c1cccc(-c2cccc(CN3CCC(N4CCCC4)CC3)c2)n1 | 0.71 |
| O=C(Nc1cccc(C(F)(F)F)c1)N1CCOC(CCN2CCC(c3ccccc3)CC2)(c2ccc(Cl)c(Cl)c2)C1 (stereo not given) | 1.11 |
| CCC[C@@H]([C@@H](CC1CCCCC1)C(=O)N[C@H](C(=O)Nc1nccs1)C(C)(C)SCCNC(=O)OCC)N(O)C=O | 0.08 |

| SMILES | IC50 [µM] |
| --- | --- |
| CC1CCN(c2nc(C(=O)Nc3ccc(F)cc3C(F)(F)F)c(C(C)C)s2)CC1 | 0.23 |
| CC(CN(C)C)C(=O)Nc1ccc(-c2ccc(-c3nc4ccc(C(F)(F)F)cc4[nH]3)cc2)cc1 (stereo not given) | 0.75 |
| COc1cc(Br)c(NC(=O)Nc2ccc(C(F)(F)F)c(O[C@@H]3CCN(C)C3)c2)cc1OC | 0.63 |
| O=C(Nc1ccc(-c2ccccc2)c(OCCN2CCNCC2)c1)c1ccc(-c2ccc(Cl)cc2)cc1 | 0.78 |
| S=C(NN=Cc1ccccn1)Nc1ccc(Cl)c(Cl)c1 | 0.77 |
| FC(F)(F)c1cccc(CNCC2CCN(CC3CCCCC3)CC2)c1 | 0.4 |
| O=C(Nc1ccccc1-c1ccccc1)C1CCCN1C(=O)Nc1ccc(Cl)cc1 (stereo not given) | 0.79 |
| Cc1sc2nc(CSc3ccccc3)nc(N3CCN(CC(=O)NC4CC4)CC3)c2c1C | 0.46 |
| CCCCOC(C(=O)OCC1CCCN1C)(c1ccccc1)c1ccccc1 (stereo not given) | 0.79 |
| COCCCNc1sc(S(=O)(=O)c2ccccc2)nc1S(=O)(=O)c1ccc(C)cc1 | 0.8 |
| CCN(CC)CCON=Cc1cc(C)c2[nH]c3ccc(OCc4ccccc4)cc3c2c1C | 0.97 |
| O=C(CN1CCCCC1)Nc1ccc(Nc2nccc(NCC(O)c3ccccc3)n2)cc1 (stereo not given) | 0.58 |
| CC(C)[C@H](NC(=O)c1ccc(O)c(-c2ccc(Cl)c(Cl)c2)c1)C(=O)NCCN1CCCC1 | 0.93 |
| O=C(Cc1ccc(-n2cnnn2)cc1)N(Cc1cncn1Cc1cccc(C(F)(F)F)c1)CC1CC1 | 0.96 |
| Cc1cc(Cl)ccc1N(Cc1ccccc1)c1ccnc(Cl)n1 | 0.86 |
| COc1ccc(Nc2nc(N)c3cc(OC)c(OC)cc3n2)cc1OC | 0.73 |
| O=C1CN(C(=O)CCC2CCCC2)C(c2ccc(F)cc2)c2cc(F)ccc2N1 (stereo not given) | 0.17 |
| COc1ccc(Nc2ncc3c(-c4cccc(NC(=O)c5ccc(N)cc5)c4)c[nH]c3n2)cc1OC | 0.97 |
| c1cc(-c2ccc(CNCc3ccsc3)cc2)cc(-c2nc3ccccc3[nH]2)c1 | 0.16 |
| O=C(Nc1cccc(-c2ccc(-c3nc4ccccc4[nH]3)cc2)c1)Nc1ccc2c(c1)OCO2 | 0.67 |
| Fc1ccc2nc(-c3ccc(-c4ccc(CN5CCN(CCN6CCOCC6)CC5)cc4)s3)[nH]c2c1 | 0.15 |
| COc1cc(OC)c(OC)cc1CN1CCC2(CC1)CN(Cc1ccc(Cl)c(Cl)c1)C(=O)O2 | 0.81 |
| CCC1CN2CCc3c([nH]c4ccccc34)C2CC1CC1=NCCc2c1[nH]c1ccc(OC)cc21 (stereo not given) | 0.64 |
| CC[C@H]1CN2CC[C@H]1C[C@H]2C(O)c1cc(OC)nc2ccccc12 (stereo not given in full) | 0.14 |
| FC(F)(F)c1cccc(Nc2nc(-c3ccccc3)nc3ncccc23)c1 | 0.8 |
